These results are taken from patent publication US10093713B2, “GIP-GLP-1 dual agonist compounds and methods” (priority 2013, dated 2018).

Read-outs that look alike come from different tables or passages of the source. *1 amine or outer side, *2 acyl side, *3 side chain or, on linkers, in order; H or OH if unused. Where a SMILES comes first, the peptide text is derived from it. Side-chain parts run from the residue outwards. [ ]: non-standard residue; d: D form. The star is where a group is joined. C20 diacid = O=C(O)CCCCCCCCCCCCCCCCCCC(=O)*; γGlu = O=C(O)[C@H](CCC(=O)[*:2])N[*:1]; Dap = NC[C@H](N)C(=O)O; AEEA = NCCOCCOCC(=O)O; Aib = CC(C)(N)C(=O)O

One assay has as its target T1, human GIP R (Homo sapiens, UniProt P48546).
T1 construct: expressed in transfected cells
T1 sequence (P48546 22-466): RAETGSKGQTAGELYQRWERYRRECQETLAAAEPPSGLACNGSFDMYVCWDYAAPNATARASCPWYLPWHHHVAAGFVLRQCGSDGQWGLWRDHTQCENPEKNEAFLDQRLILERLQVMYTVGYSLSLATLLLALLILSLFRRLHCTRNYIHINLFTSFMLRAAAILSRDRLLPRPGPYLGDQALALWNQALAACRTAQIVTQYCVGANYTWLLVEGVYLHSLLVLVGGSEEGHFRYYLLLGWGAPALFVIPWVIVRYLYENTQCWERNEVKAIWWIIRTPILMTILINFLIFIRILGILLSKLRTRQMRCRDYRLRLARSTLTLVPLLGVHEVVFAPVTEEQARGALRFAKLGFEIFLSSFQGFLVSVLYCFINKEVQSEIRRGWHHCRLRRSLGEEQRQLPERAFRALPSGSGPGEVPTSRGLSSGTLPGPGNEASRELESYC
Nature of the assay: Human GIP receptor (GIP R) activity assay, cAMP induction (AlphaScreen) in HEK293 cells. The class given is cell-based. Particulars: read-out: hGIP-R cAMP EC50 average value. An outline of the steps: (§1)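 Stable HEK293 clones expressing human GIP R or GLP-1 R, seeded 1 day before; cells washed in Tyrode's buffer (10 mM HEPES, pH 7.4), stimulated, then lysed. cAMP measured by AlphaScreen bead competition (1 h, room temperature, dark). EC50 = concentration giving half-maximal cAMP elevation, from curves of absolute cAMP (nM) vs log concentration.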

The target of a further assay is T2, human GLP-1 R (Homo sapiens, UniProt P43220).
T2 construct: expressed in transfected cells
T2 sequence (P43220 24-463): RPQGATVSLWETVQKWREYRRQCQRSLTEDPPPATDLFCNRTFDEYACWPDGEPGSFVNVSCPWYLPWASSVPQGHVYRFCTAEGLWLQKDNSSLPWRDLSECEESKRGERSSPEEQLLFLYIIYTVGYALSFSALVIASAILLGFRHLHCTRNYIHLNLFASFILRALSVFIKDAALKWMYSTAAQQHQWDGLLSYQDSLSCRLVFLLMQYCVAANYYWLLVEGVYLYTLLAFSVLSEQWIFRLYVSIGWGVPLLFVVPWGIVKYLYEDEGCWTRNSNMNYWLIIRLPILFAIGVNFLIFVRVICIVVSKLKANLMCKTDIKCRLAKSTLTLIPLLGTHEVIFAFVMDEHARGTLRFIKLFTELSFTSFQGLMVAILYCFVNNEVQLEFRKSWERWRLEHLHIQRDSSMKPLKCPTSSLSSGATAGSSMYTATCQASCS
Nature of the assay: Human GLP-1 receptor (GLP-1 R) activity assay, cAMP induction (AlphaScreen) in HEK293 cells. The class given is cell-based. In outline:
as §1
(In general: Alpha assays give light when donor and acceptor beads are brought close together.)

[1] abbreviates: Table 2, HEK293 cells expressing human GIP R.
Setting [2] is: Table 2, HEK293 cells expressing human GLP-1 R, read-out: hGLP1-R cAMP EC50 average value.
Where [3] appears, read: Table 3, most comprehensive data.
The mark [4] stands for this setting: Table 3, most comprehensive data, read-out: hGLP-1-R cAMP EC50 average value.

One may read the EC50 as the concentration that produces a half-maximal response. For `CC[C@H](C)[C@H](NC(=O)[C@H](CO)NC(=O)[C@H](Cc1ccc(O)cc1)NC(=O)[C@H](CC(=O)O)NC(=O)[C@H](CO)NC(=O)[C@@H](NC(=O)[C@H](Cc1ccccc1)NC(=O)[C@@H](NC(=O)CNC(=O)[C@H](CCC(=O)O)NC(=O)C(C)(C)NC(=O)[C@@H](N)Cc1ccc(O)cc1)[C@@H](C)O)[C@@H](C)O)C(=O)N[C@@H](Cc1ccc(O)cc1)C(=O)N[C@@H](CC(C)C)C(=O)N[C@@H](CCC(=O)O)C(=O)N[C@@H](CCCCN)C(=O)N[C@@H](CCCCNC(=O)COCCOCCNC(=O)COCCOCCNC(=O)CC[C@H](NC(=O)CCCCCCCCCCCCCCCCCCC(=O)O)C(=O)O)C(=O)N[C@@H](C)C(=O)N[C@@H](CCC(N)=O)C(=O)N[C@@H](CCCNC(=N)N)C(=O)N[C@@H](C)C(=O)N[C@@H](Cc1ccccc1)C(=O)N[C@H](C(=O)N[C@@H](CCC(=O)O)C(=O)N[C@@H](Cc1c[nH]c2ccccc12)C(=O)N[C@@H](CC(C)C)C(=O)N[C@@H](CC(C)C)C(=O)N[C@@H](CCCNC(=N)N)C(=O)N[C@@H](C)C(N)=O)C(C)C` [Compound 29] (H-Y[Aib]EGTFTSDYSIYLEKK([AEEA-AEEA-γGlu-C20 diacid])AQRAFVEWLLRA-NH2), the EC50 at human GIP R (setting [1]) was found to be 0.025 nM; at human GLP-1 R (setting [2]), 0.033 nM.
`CC[C@H](C)[C@H](NC(=O)[C@H](CO)NC(=O)[C@H](CC(C)C)NC(=O)[C@H](CC(=O)O)NC(=O)[C@H](CO)NC(=O)[C@@H](NC(=O)[C@H](Cc1ccccc1)NC(=O)[C@@H](NC(=O)CNC(=O)[C@H](CCC(=O)O)NC(=O)C(C)(C)NC(=O)[C@@H](N)Cc1ccc(O)cc1)[C@@H](C)O)[C@@H](C)O)C(=O)N[C@@H](C)C(=O)N[C@@H](CC(C)C)C(=O)N[C@@H](CCC(=O)O)C(=O)N[C@@H](CCCCN)C(=O)N[C@@H](CCCCNC(=O)COCCOCCNC(=O)COCCOCCNC(=O)CC[C@H](NC(=O)CCCCCCCCCCCCCCCCCCC(=O)O)C(=O)O)C(=O)N[C@@H](C)C(=O)N[C@@H](CCC(N)=O)C(=O)N[C@@H](CCCNC(=N)N)C(=O)N[C@@H](C)C(=O)N[C@@H](Cc1ccccc1)C(=O)N[C@H](C(=O)N[C@@H](CCC(=O)O)C(=O)N[C@@H](Cc1c[nH]c2ccccc12)C(=O)N[C@@H](CC(C)C)C(=O)N[C@@H](CC(C)C)C(=O)N[C@@H](C)C(=O)N[C@@H](CCC(N)=O)C(=O)NCC(=O)N1CCC[C@H]1C(=O)N[C@@H](CO)C(=O)N[C@@H](CO)C(=O)NCC(=O)N[C@@H](C)C(=O)N1CCC[C@H]1C(=O)N1CCC[C@H]1C(=O)N1CCC[C@H]1C(=O)N[C@@H](CO)C(N)=O)C(C)C` [Compound 33] (H-Y[Aib]EGTFTSDLSIALEKK([AEEA-AEEA-γGlu-C20 diacid])AQRAFVEWLLAQGPSSGAPPPS-NH2): the EC50 at human GIP R (setting [1]) is 0.009 nM; at human GIP R (setting [3]), 0.009 nM; at human GLP-1 R (setting [2]), 0.014 nM.
For the molecule `CC[C@H](C)[C@H](NC(=O)[C@H](CO)NC(=O)[C@H](Cc1ccc(O)cc1)NC(=O)[C@H](CC(=O)O)NC(=O)[C@H](CO)NC(=O)[C@@H](NC(=O)[C@H](Cc1ccccc1)NC(=O)[C@@H](NC(=O)CNC(=O)[C@H](CCC(=O)O)NC(=O)C(C)(C)NC(=O)[C@@H](N)Cc1ccc(O)cc1)[C@@H](C)O)[C@@H](C)O)C(=O)N[C@@H](Cc1ccc(O)cc1)C(=O)N[C@@H](CC(C)C)C(=O)N[C@@H](CC(=O)O)C(=O)N[C@@H](CCCCN)C(=O)N[C@@H](CCCCNC(=O)COCCOCCNC(=O)COCCOCCNC(=O)CCCCCCCCCCCCCCCCCCC(=O)O)C(=O)N[C@@H](C)C(=O)N[C@@H](CCC(N)=O)C(=O)N[C@@H](CCCNC(=N)N)C(=O)N[C@@H](C)C(=O)N[C@@H](Cc1ccccc1)C(=O)N[C@H](C(=O)N[C@@H](CCC(=O)O)C(=O)N[C@@H](Cc1c[nH]c2ccccc12)C(=O)N[C@@H](CC(C)C)C(=O)N[C@@H](CC(C)C)C(=O)N[C@@H](C)C(=O)N[C@@H](CCC(N)=O)C(=O)NCC(=O)N1CCC[C@H]1C(=O)N[C@@H](CO)C(=O)N[C@@H](CO)C(=O)NCC(=O)N[C@@H](C)C(=O)N1CCC[C@H]1C(=O)N1CCC[C@H]1C(=O)N1CCC[C@H]1C(=O)N[C@@H](CO)C(N)=O)C(C)C` [Compound 35] (H-Y[Aib]EGTFTSDYSIYLDKK([AEEA-AEEA-C20 diacid])AQRAFVEWLLAQGPSSGAPPPS-NH2), the EC50 on human GIP R (setting [3]) stood at 0.016 nM; at human GLP-1 R (setting [4]) it was 0.012 nM.
For `CC[C@H](C)[C@H](NC(=O)[C@H](CO)NC(=O)[C@H](Cc1ccc(O)cc1)NC(=O)[C@H](CC(=O)O)NC(=O)[C@H](CO)NC(=O)[C@@H](NC(=O)[C@H](Cc1ccccc1)NC(=O)[C@@H](NC(=O)CNC(=O)[C@H](CCC(=O)O)NC(=O)C(C)(C)NC(=O)[C@@H](N)Cc1ccc(O)cc1)[C@@H](C)O)[C@@H](C)O)C(=O)N[C@@H](Cc1ccc(O)cc1)C(=O)N[C@@H](CC(C)C)C(=O)N[C@@H](CC(=O)O)C(=O)N[C@@H](CCCCN)C(=O)N[C@@H](CCCCNC(=O)CC[C@H](NC(=O)CCCCCCCCCCCCCCCCCCC(=O)O)C(=O)O)C(=O)N[C@@H](C)C(=O)N[C@@H](CCC(N)=O)C(=O)N[C@@H](CCCNC(=N)N)C(=O)N[C@@H](C)C(=O)N[C@@H](Cc1ccccc1)C(=O)N[C@H](C(=O)N[C@@H](CCC(=O)O)C(=O)N[C@@H](Cc1c[nH]c2ccccc12)C(=O)N[C@@H](CC(C)C)C(=O)N[C@@H](CC(C)C)C(=O)N[C@@H](C)C(=O)N[C@@H](CCC(N)=O)C(=O)NCC(=O)N1CCC[C@H]1C(=O)N[C@@H](CO)C(=O)N[C@@H](CO)C(=O)NCC(=O)N[C@@H](C)C(=O)N1CCC[C@H]1C(=O)N1CCC[C@H]1C(=O)N1CCC[C@H]1C(=O)N[C@@H](CO)C(N)=O)C(C)C` [Compound 36] (H-Y[Aib]EGTFTSDYSIYLDKK([γGlu-C20 diacid])AQRAFVEWLLAQGPSSGAPPPS-NH2), in that order: 0.01 nM and 0.015 nM.
On the same counts, the results for `CC[C@H](C)[C@H](NC(=O)[C@H](CO)NC(=O)[C@H](Cc1ccc(O)cc1)NC(=O)[C@H](CC(=O)O)NC(=O)[C@H](CO)NC(=O)[C@@H](NC(=O)[C@H](Cc1ccccc1)NC(=O)[C@@H](NC(=O)CNC(=O)[C@H](CCC(=O)O)NC(=O)C(C)(C)NC(=O)[C@@H](N)Cc1ccc(O)cc1)[C@@H](C)O)[C@@H](C)O)C(=O)N[C@@H](Cc1ccc(O)cc1)C(=O)N[C@@H](CC(C)C)C(=O)N[C@@H](CC(=O)O)C(=O)N[C@@H](CCCCN)C(=O)N[C@@H](CCCCNC(=O)COCCOCCNC(=O)COCCOCCNC(=O)[C@H](CN)NC(=O)CCCCCCCCCCCCCCCCCCC(=O)O)C(=O)N[C@@H](C)C(=O)N[C@@H](CCC(N)=O)C(=O)N[C@@H](CCCNC(=N)N)C(=O)N[C@@H](C)C(=O)N[C@@H](Cc1ccccc1)C(=O)N[C@H](C(=O)N[C@@H](CCC(=O)O)C(=O)N[C@@H](Cc1c[nH]c2ccccc12)C(=O)N[C@@H](CC(C)C)C(=O)N[C@@H](CC(C)C)C(=O)N[C@@H](C)C(=O)N[C@@H](CCC(N)=O)C(=O)NCC(=O)N1CCC[C@H]1C(=O)N[C@@H](CO)C(=O)N[C@@H](CO)C(=O)NCC(=O)N[C@@H](C)C(=O)N1CCC[C@H]1C(=O)N1CCC[C@H]1C(=O)N1CCC[C@H]1C(=O)N[C@@H](CO)C(N)=O)C(C)C` [Compound 37] (H-Y[Aib]EGTFTSDYSIYLDKK([AEEA-AEEA-Dap-C20 diacid])AQRAFVEWLLAQGPSSGAPPPS-NH2) are 0.017 nM and 0.014 nM.
